In US8200312B2, “Apparatus for monitoring a system pressure in space with time and method for assessing drug delivery and resistance to therapy and product” (Yeda Research and Development Co. Ltd., priority 2006, dated 2012):
Entries after “also recorded” stand apart in the source; their conditions may differ.

Tests used:
[1] = as previously reported (44); cited from earlier work
[2] = test system: ectopic human non-small-cell lung cancer and orthotopic MCF7 human breast tumors; conditions: slow infusion for ~2 hours; cited from earlier work
fibrosarcoma mouse model = conditions: cited from earlier work
[3] = test system: H460 human non-small-cell lung cancer tumors; test: Dynamic contrast-enhanced MRI during slow GdDTPA infusion: vascular parameters before and after collagenase; type: in vivo, female CD1-NU immunodeficient mice
Experimental: (§1) Collagenase catalyzes the degradation of collagen fibers. Changing the collagen microfibrillar network in tumors modulates the extracellular matrix and causes a decrease in IFP (10, 26). H460 tumors were monitored during infusion, in the dynamic period and at steady state 24 h before and ˜5 h after collagenase administration (0.4 mg/kg body w). […] Similarly, maps of transcapillary transfer due to pressure gradients, k^ΔP, and the profiles of this parameter across the tumor indicated a change, particularly in the tumor's central region, from a negative k^ΔP before collagenase to a null or positive k^ΔP after collagenase (FIG. 6).
(§2) Human NCI-H460 non small cell lung cancer (NSCLC) cells were cultivated and implanted into the flanks of female CD1-NU immunodeficient mice, as previously described (4). During the MRI experiments, mice were anaesthetized by inhalation of 1% isofluorane (Medeva Pharmaceuticals, Inc., Rochester, N.Y., USA) in an O2/N2O (3:7) mixture applied through a nose cone (4). Collagenase (Sigma-Aldrich, St Louis, Mo., USA) treatment was applied by i.v. injection of 0.4 mg/kg body w of this enzyme (1 mg=161 collagen digestion units).
MRI scanning was performed on a 4.7-T Biospec spectrometer (Bruker Biospin, Rheinstetten, Germany) employing the same spatial resolution of 0.2×0.2×1 mm^3 in all protocols. Delineation of the boundary of the tumors and determination of their volume was achieved by analyzing images recorded with a 2-dimensional fast spin echo sequence using […] as previously described (40).
(§3) Tissue contrast agent concentration at steady state infusion was determined from measurements of T1 relaxation rates before, and at 90 min after the start of the intravenous infusion of the contrast agent as previously described (4). For the dynamic measurements 3-dimensional T1. weighted gradient echo images were recorded using TErTR=2.1/18.3 ms and flip angle=45°, 47 s temporal resolution. After recording 5 pre-contrast images, slow infusion of GdDTPA (gadopentate-dimeglumine, Schering, Berlin, Germany) was initiated at a rate of 0.011 mmol/min/kg body wt. for a total time of 120 min.
Analysis of the dynamic data collected during the slow infusion was performed at pixel resolution, on the basis of a model proposed by Jain et al (1, 35, 41-43). This model takes into account the transfer of solutes through the capillary walls and within the interstitial spaces by both diffusion in the direction of the concentration gradients and convection in the direction of the pressure gradients. Relying on few assumptions, which are described herein two differential equations were solved. The first equation applies to regions with low IFP were positive pressure gradients favors net transfer of contrast agent from the capillaries into the tissue (see equation 1) and the second one applies to intra tumoral regions with high IFP where a pressure gradients in the interstitium favors outward convection of the contrast agent and reduces the net delivery to these regions (see equation 2).
Where Ct is the contrast agent concentration in the entire tissue, Dinf is the contrast agent-infusion rate, k^trans the transcapillary transfer constant, k^ΔP the pressure gradients derived transfer rate which also depends on the shape, morphology, and the hydraulic conductivity of the tissue (1). νe represents the extracellular extravascular (EES) volume fraction, and νp the intravascular volume fraction. The parameters ai, and mi (i=1,2) represent the average plasma pharmacokinetic amplitude and time constant parameters, respectivelyt calculated to be a1=2.94 kg/l, a2=4.85 kg/l, m1=0.73 min^−1, and m2=0.075 min^−1 as previously reported (44).
A nonlinear “best fit” algorithm (40) was applied to fit the time courses to Equations 1 and 2, calculating the proportion of variability, R^2, per pixel for each fitting. […]

H460 tumors = test: Steady-state tissue GdDTPA concentration maps (T1 relaxation MRI) before and after collagenase; type: in vivo, female CD1-NU immunodeficient mice
Experimental: as §1, §2, §3
Tissue GdDTPA concentration (CGd) at steady state was calculated at pixel resolution from the T1 measurements, as previously described (4).

[4] = test system: human osteosarcoma xenografts; conditions: collagenase (0.1%), cited from earlier work
tumors = conditions: intra-tumoral injection; cited from earlier work
[5] = inside H460 tumors (excluding the rim), 5 h after collagenase administration
[6] = H460 tumors, within hours after administration
[7] = steady state infusion, ~5 h after collagenase 0.4 mg/kg

Compound: O=C([O-])CN(CCN(CC(=O)[O-])CC(=O)O)CCN(CC(=O)[O-])CC(=O)O.[Gd+3] [GdDTPA, gadolinium-diethylenetriaminepentaacetic acid]
- a1, average plasma pharmacokinetic amplitude [1]: 2.94 kg/L
- a2, average plasma pharmacokinetic amplitude [1]: 4.85 kg/L
- m1, plasma time constant parameter [1]: 0.73 min⁻¹
- m2, plasma time constant parameter [1]: 0.075 min⁻¹
- steady-state tissue GdDTPA concentration further inside the tumor [2]: low or null values
- steady-state tissue GdDTPA concentration in the tumor periphery [2]: ~0.5 mmol/L
- steady-state tissue GdDTPA concentration outside the tumor boundaries [2]: ~1 mmol/L

Compound: O=C1CCC(N2C(=O)c3ccccc3C2=O)C(=O)N1 (stereo not drawn) [thalidomide]
- plasma volume fraction and fractional efflux rate from the interstitial space to the plasma (fibrosarcoma mouse model; accompanying the decline in IFP): increased
- effect on IFP (fibrosarcoma mouse model; fibrosarcoma mouse model): decline

Compound: collagenase
- all other vascular parameters derived from the analysis, change after collagenase ([3]; H460 tumors, ~5 h after collagenase 0.4 mg/kg): did not change significantly
- change of pressure dependent transfer constant in the tumors' central/internal regions after collagenase ([3]; H460 tumors, from negative to positive values): significant increase; also recorded: significant change
- k^ΔP in the internal parts of the tumors following collagenase treatment ([3]; increased from (−2.6±3.7)*10^−3, paired t-test, p=0.016): 8.6±8.9 *10^−3
- K^trans*10^−3 [3, 5]: 3.7 ± 3.4 *10^−3
- […]e (extracellular extravascular volume fraction) [3, 5]: 0.24 ± 0.06
- […]p (intravascular volume fraction) [3, 5]: 0.053 ± 0.027
- K^□p*10^−3 (pressure dependent transfer constant) ([3]; inside H460 tumors (excluding the rim), 5 h after collagenase administration, 0.4 mg/kg i.v., mean ± SD): 8.6 ± 8.9 *10^−3
- steady state tissue GdDTPA concentration in the internal parts after collagenase treatment (H460 tumors; H460 tumors): significantly increased
- effect on IFP (H460 tumors; [6]): reduces IFP
- effect on uptake of a contrast agent (H460 tumors; [6]): increases the uptake
- outward convection after collagenase treatment (H460 tumors; [7]): vanished
- transfer of the contrast agent in the interior regions of the tumor after collagenase (H460 tumors; [7]): markedly increased
- effect on IFP ([4]; within hours): reduced IFP
- increase in the tumor uptake and distribution of a monoclonal antibody [4]: 2 fold
- effect on IFP (tumors): reduce IFP
- effect on uptake of antibodies (tumors): increase the uptake

Compound: hyaluronidase
- effect on IFP (tumors): reduce IFP
- effect on uptake of antibodies (tumors): increase the uptake
